From ChEMBL document CHEMBL3792378, “Design, synthesis and cytotoxicity of pyrano[4,3-b]indol-1(5H)-ones: A hybrid pharmacophore approach via gold catalyzed cyclization” (Bioorg Med Chem Lett, 2016)

Test system: HeLa
Experiment: Cytotoxicity against human HeLa cells incubated for 48 hrs by MTT assay
Type: functional, cell-based

**Q.** With `CCCCc1cc2c(c(=O)o1)c1ccccc1n2C` as the molecule, how does the IC50 read?
**A.** The IC50 was 1920 nM.

**Q.** For `O=c1oc(-c2ccccc2)cc2[nH]c3ccccc3c12`, which IC50 is on record?
**A.** Its IC50 is 2550 nM.

**Q.** `CCCCc1cc2c(c(=O)o1)c1ccccc1n2Cc1ccccc1` was tested. Which IC50 did it give?
**A.** The IC50 was 1750 nM.

**Q.** For `O=c1oc(CCCO)cc2c1c1ccccc1n2Cc1ccccc1`, which IC50 is on record?
**A.** The IC50 was 2250 nM.

**Q.** For `Cn1c2ccccc2c2c(=O)oc(-c3ccccc3)cc21`, which IC50 is on record?
**A.** Its IC50 is 1240 nM.

**Q.** With `CCCCn1c2ccccc2c2c(=O)oc(-c3ccccc3)cc21` as the molecule, how does the IC50 read?
**A.** Its IC50 is 1110 nM.

**Q.** For `O=c1oc(-c2ccccc2)cc2c1c1ccccc1n2Cc1ccccc1`, which IC50 is on record?
**A.** The IC50 was 690 nM.

**Q.** How did the IC50 turn out when `CC(C)(O)c1cc2c(c(=O)o1)c1ccccc1n2Cc1ccccc1` was run?
**A.** The IC50 was 2020 nM.

**Q.** `CCCCCc1cc2c(c(=O)o1)c1ccccc1n2Cc1ccccc1` was tested. Which IC50 did it give?
**A.** The IC50 was 1630 nM.

**Q.** For `CCn1c2ccccc2c2c(=O)oc(-c3ccccc3)cc21`, which IC50 is on record?
**A.** Its IC50 is 1410 nM.

**Q.** For `CCCCc1cc2c(c(=O)o1)c1ccccc1n2CC`, which IC50 is on record?
**A.** Its IC50 is 1890 nM.
